Source: patent publication US12031897B2, “Target-locking single-molecule nanoscopy” (Memorial Sloan Kettering Cancer Center, priority 2019, dated 2024)
Entries after “also recorded” stand apart in the source; their conditions may differ.

Legend:
[1] = test system: Cdk9 foci at the Pou5f1 locus; assay: Cdk9 cluster signal at Pou5f1 upon inhibition (live-cell confocal/STED scans); type: cell-based, mouse; settings: for Cdk9 signal at Pou5f1 upon inhibition: 1 μM JQ1 (within 1 min) or 10 μM Flavopiridol
Excerpt: If rapid Pou5f1 shut-down reflects significant Cdk9 portion being recruited through Brd4-acetylated histone recognition, both Brd4 and Cdk9 clustering would dissipate upon JQ1 inhibition. […] Cdk9/Med22 focal accumulation appears to be stabilized through highly-specific molecular recognition-multiple Brd4 molecules binding to multiple acetylated targets throughout the heavily modified Pou5f1 enhancer region—rather than possibly less-selective physicochemical forces, e.g. driven by low-complexity protein domains and RNA.
For real-time confocal and STED imaging, example implementations may program the wave generator to scan 2 μm×2 μm or 1 μm×1 μm xy areas in 0.8 sec or 0.2 sec respectively. 3D scanning was performed (via, e.g., detection system 150) by acquiring 5 xy scans while moving the stage by 0.5 μm in z between scans. TTL pulses corresponding to single-photon events from the APDs, together with the trigger pulses from the wave generator were detected using a field-programmable gate array (FPGA) data acquisition system (National Instruments, PCIe-7852R).
Before imaging, cells were seeded onto 8-chamber coverglass (LabTek, 155411) coated with 5 μg/ml laminin (BioLamina LN511), in −2i media (OMG) or +2i media (NMG) and appropriate drugs. For SiR staining, cells were labeled with media containing 0.3 μM SiR-BG for 10 mins, at 37° C., followed by three washes with new media.
To generate OMG SNAP-Cdk9 targeted cells, OMG-1 mESCs (1×106) were transfected with 10 μg SNAP-Cdk9 donor vector and 0.6 μg espCas9-gRNA-Cdk9 vector. 10 days after transfection, the cells were trypsinized, labeled with SiR-BG and subjected to FACS, generating a first-round SiR-positive pool. This pool was then expanded, stained with SiR-BG and subjected to second FACS round and individual clones were picked and expanded.

[2] = test system: Pol II (SiR-Rpb1) at the CMV mini-gene transcription site; assay: SiR-Rpb1 (Pol II) dynamics at the CMV mini-gene after inhibitor addition (target-locking); type: cell-based, human; settings: for SiR-Rpb1 exponential decay time (ii) individual target-locked transcription site traces: 10 μM flavopiridol or 10 μM triptolide, mean±S.D.; for SiR-Rpb1 exponential decay time (i) fit parameters of total signal from different transcription sites: after adding 10 μM flavopiridol or 10 μM triptolide, target-locking
Experimental: To visualize Pol II, example implementations may express a SNAP-tagged Rpb1 Pol II subunit (SNAP-Rpb1). […] Importantly, the brightness and gradual SiR-Rpb1 photobleaching within these foci (see below) indicates multiple Pol II molecules accumulating at the mini-gene. Previously, it was unclear to what extent transcription is carried out by individual, solitary Pol II molecules, or whether it involves multiple Pol II molecules. When Pol II clustering occurs, as typically little information on genomic position and promoter activity is simultaneously available, it has been hard to establish whether and how this phenomenon relates to transcription. Our observations reveal that focal Pol II accumulation and transcription activity from a specific promoter at a specific genomic locus are spatially and temporally linked.
Regarding target-locking probes nanometer Pol II organization at the transcription site, motion blur and bleaching during scanning distorts the 3D images, limits the observation times and makes quantifying and tracking Pol II at the transcription site, with single-molecule sensitivity and higher spatio-temporal resolution, extremely difficult (FIGS. 11D, 11E). To eliminate scanning, example implementations may develop a target-locking system that obtains single-shot spatial information (FIG. 10A) and actively stabilizes the transcription site at the (common) excitation maximum/STED zero. With feedback loop speeds up to 30 fps, tdPCP-EGFP is locked within ˜30 nm root-mean-square (r.m.s.) from the desired set-point (FIGS. 4E, 4F, 11F). Target-locking at the excitation maximum provides the same total photon counts as scanning, but at orders-of-magnitude lower power, improving photostability. […]
Pol II closely follows the fate of nascent transcripts: SiR-Rpb1 accumulation gradually decreases after inhibitor addition (FIGS. 3B, 3C and 13H decay times 160-240 sec). […] The good agreement with decay rates measured optically further supports the notion that the accumulated SiR-Rpb1 signal reflects multiple elongating/terminating Pol IIs.
For active feedback control, example implementations may adopt a custom LabVIEW program, optimized for fast CCD acquisition (via, e.g., detection system 150), real-time image analysis and active microscope stabilization using nanopositioning equipment (e.g., platform 190). The images obtained from the Ixon3 897 detector (e.g., detection system 150) were analyzed on the fly by non-linear least-squares fitting of a 21×21 pixel ROI to a 2D Gaussian peak function implemented in LabVIEW. […] The coordinates returned by the 2D Gaussian peak fit were passed onto a PID controller that calculated the desired position correction that was commanded to the nanopositioning stage controller. […]

SMILES | Cdk9 signal at Pou5f1 upon inhibition [1] | Hill equation n, relative Cdk9 signal vs. [JQ1] ([1]; Pou5f1) | SiR-Rpb1 exponential decay time (ii) individual target-locked transcription site traces [2] [s] | SiR-Rpb1 exponential decay time (i) fit parameters of total signal from different transcription sites [2] [s]
Cc1sc2c(c1C)C(c1ccc(Cl)cc1)=N[C@@H](CC(=O)OC(C)(C)C)c1nnc(C)n1-2 [JQ1] | drop sharply; also recorded: drop close to noise-floor | 0.8±0.1 |  | 
CN1CC[C@H](c2c(O)cc(O)c3c(=O)cc(-c4ccccc4Cl)oc23)[C@H](O)C1 [flavopiridol] | not lost |  | 162 ± 71 | 238 ± 49
CC(C)[C@]12O[C@H]1[C@@H]1O[C@]13[C@]1(O[C@H]1C[C@H]1C4=C(CC[C@@]13C)C(=O)OC4)[C@@H]2O [triptolide] |  |  | 242 ± 148 | 239 ± 24
